Data published in patent US11933794B2, “Method for determining factor Xa inhibitor dosage” (Good Biomarker Sciences B.V., priority 2017, dated 2024).

Columns and labels:
[1] = test system: fibrin clot formation in blood plasma; assay: Clot growth rate assay (Thrombodynamics) in plasma samples with defined Factor VIII levels; format: biochemical, human; conditions: for inhibition of clot growth rate: FIG. 1
Description: (§1) The clot growth rate assay monitors over time fibrin clot development in a nonstirred thin layer of platelet-free plasma activated by immobilized tissue factor. For this, the Thrombodynamics Basic Kit can be used as an in vitro diagnostic kit used to perform measurements of spatiotemporal dynamics of fibrin clot formation in blood plasma samples. The kit consists of measurement cuvettes, activating inserts and reagents for samples treatment. The kit is obtainable from HemaCore intended for professional use in the laboratory on the Thrombodynamics Analyzer T-2. See, for further details, Soshitova et al. (Blood Coagul. Fibrinolysis, 2012 September; 23(6):498-507).
Five plasma samples were prepared containing 50%, 75%, 100%, 150%, or 200% Factor VIII, respectively. The samples were prepared using FVIII-deficient plasma, normal plasma from healthy subjects, and FVIII concentrate and Factor VIII levels were measured and confirmed by the one-stage clotting assay. Each of these five plasma samples was subdivided into five subsamples to which apixaban was added to a total concentration of 0 μM, 0.1 μM, 0.2 μM, 0.35 μM, or 0.5 μM in plasma, respectively. The 25 subsamples were subjected to a clot growth assay as described above, and the clot growth rate was measured at 2500 seconds after start of growth.
For each different Factor VIII concentration (i.e., 50%, 75%, 100%, 150% or 200%), five bars are shown representing subsamples to which apixaban was added to a different total concentration, i.e., 0 μM, 0.1 μM, 0.2 μM, 0.35 μM, or […], respectively.

[2] = test system: clot growth in hemophilia plasma (deficient in Factor IX and Factor VIII); assay: Clot growth experiments comparing normal and hemophilia plasma; format: biochemical, human; conditions: hemophilia plasmas; in contrast to what was found in normal plasma
Description: For clot growth, this now appears the key mechanism. In contrast, in text books, activation of Factor VIII is indicated to be a thrombin action.
as §1

coagulation status = assay: Coagulation status of patients by routine coagulation test (activated partial thromboplastin time, APTT); format: in vivo, human
Protocol: Four subjects in need of […] are selected, including three patients with thrombosis, and one patient with coronary artery disease.
Coagulation status of patients 1-4 is determined by a routine coagulation test (activated partial thromboplastin time, APTT).

Structure (SMILES) | inhibition of clot growth rate ([1]; Factor VIII level below 100%, lowest apixaban concentration (0.1 μM in plasma)) | inhibition of clot growth rate ([1]; Factor VIII levels above 100%, 0.1 μM apixaban) | inhibition of clot growth rate ([1]; Factor VIII levels above 100%, 0.35 μM apixaban in plasma) | inhibition of clot growth [2] | coagulation status (APTT): risk of blood clotting or bleeding events (coagulation status; Patient 1 (thrombosis), Factor VIII 80% of standard plasma, 5 mg per day) | coagulation status (APTT): risk of blood clotting or bleeding events (coagulation status; Patient 4 (coronary artery disease), Factor VIII 240% of standard plasma, 5 mg per day) | coagulation status (APTT): risk of blood clotting or bleeding events (coagulation status; Patient 2 (thrombosis), Factor VIII 95% of standard plasma, 20 mg per day) | effects in the clot growth rate assay compared with apixaban ([1]; FIG. 2)
COc1ccc(-n2nc(C(N)=O)c3c2C(=O)N(c2ccc(N4CCCCC4=O)cc2)CC3)cc1 [apixaban] | close to maximal inhibition | not be very effective | substantial inhibition | did not inhibit clot growth | no increased risk of blood clotting or bleeding events | increased risk of blood clotting events |  | 
CN1CCc2nc(C(=O)N[C@@H]3C[C@@H](C(=O)N(C)C)CC[C@@H]3NC(=O)C(=O)Nc3ccc(Cl)cn3)sc2C1 [edoxaban] |  |  |  |  |  |  | increased risk of bleeding events | 
O=C(NC[C@H]1CN(c2ccc(N3CCOCC3=O)cc2)C(=O)O1)c1ccc(Cl)s1 [rivaroxaban] |  |  |  | did not inhibit clot growth |  |  |  | closely mimic the effects of apixaban
